Measured values reported in article PMC7044277 (Nature Communications, 2020).
Several values for one entry are separate records, joined by “and”; a condition that tells them apart may be missing. Identical values can stand only once.

Tests used:
[1] = target: T1, DRD2 F1103.28A (Homo sapiens, UniProt P14416, F110A); assay: Gαi/o-mediated cAMP inhibition (GloSensor), mutant; type: cell-based; set-up: expressed in transfected cells; host or cells: HEK293T (ATCC CRL-11268)
[2] = target: T2, DRD4 (D4.4 variant) wild-type (Homo sapiens, UniProt P21917); assay: Radioligand competition binding, [3H]-N-methylspiperone; details: DRD4; [3H]-methylspiperone (0.8-1.0 nM); read-out: Ki
T2 sequence (P21917 1-419): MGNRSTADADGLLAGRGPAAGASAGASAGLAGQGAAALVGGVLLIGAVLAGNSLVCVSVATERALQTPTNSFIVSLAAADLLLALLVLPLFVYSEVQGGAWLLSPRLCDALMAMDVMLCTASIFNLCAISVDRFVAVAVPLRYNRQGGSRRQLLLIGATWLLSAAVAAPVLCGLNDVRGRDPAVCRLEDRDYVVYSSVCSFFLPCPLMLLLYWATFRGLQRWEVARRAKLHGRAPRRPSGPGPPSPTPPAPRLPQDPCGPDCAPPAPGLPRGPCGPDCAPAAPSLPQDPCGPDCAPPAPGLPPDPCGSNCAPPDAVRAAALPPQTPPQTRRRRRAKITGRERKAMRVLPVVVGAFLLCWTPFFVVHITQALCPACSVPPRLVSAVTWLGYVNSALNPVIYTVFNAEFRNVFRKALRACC

[3] = target: T1, DRD2 F1103.28A; type: binding; set-up: expressed in transfected cells; host or cells: HEK293T (ATCC CRL-11268); details: DRD2 F1103.28A; read-out: Ki
[4] = test system: 320 non-olfactory GPCRs; type: cell-based; details: compound at 1 μM
[5] = target: 5HT2A (Homo sapiens, UniProt P28223); assay: β-arrestin2 recruitment (Tango); type: cell-based; details: single replicate values
[6] = target: T3, DRD2 F1103.28L (Homo sapiens, UniProt P14416, F110L); assay: β-arrestin2 recruitment (Tango), mutant; type: cell-based
T3 construct: expressed in transfected cells; host or cells: HEK293T (ATCC CRL-11268)

[7] = test system: serotonin receptor of Fig_S10g (subtype not named); assay: β-arrestin2 recruitment (Tango), agonist activity, panel Fig_S10g (serotonin as reference; receptor not given); type: cell-based, human
[8] = test system: serotonin receptor (subtype not given; reference agonist serotonin); assay: β-arrestin2 recruitment (Tango), agonist activity, source data Fig_S10m; type: cell-based, human; details: drug alone
[9] = target: DRD2 (D2 long receptor) wild-type (Homo sapiens, UniProt P14416); assay: Radioligand competition binding, [3H]-N-methylspiperone, HEK293T membranes; details: DRD2; [3H]-methylspiperone (0.8-1.0 nM); read-out: Ki
[10] = target: T4, DRD4 (D4.4 variant) (Homo sapiens, UniProt P21917); assay: β-arrestin2 recruitment (Tango); type: cell-based; details: for Fig_S10c concentration-response source data, compound alone (replicates): agonist mode
T4 sequence (P21917 1-419): T2 sequence (P21917 1-419)

[11] = test system: serotonin receptor of Fig_S10i (subtype not given); assay: β-arrestin2 recruitment (Tango), agonist activity, source data Fig_S10i; type: cell-based, human; details: drug alone

Sequence of 5HT2A (P28223 whole entry): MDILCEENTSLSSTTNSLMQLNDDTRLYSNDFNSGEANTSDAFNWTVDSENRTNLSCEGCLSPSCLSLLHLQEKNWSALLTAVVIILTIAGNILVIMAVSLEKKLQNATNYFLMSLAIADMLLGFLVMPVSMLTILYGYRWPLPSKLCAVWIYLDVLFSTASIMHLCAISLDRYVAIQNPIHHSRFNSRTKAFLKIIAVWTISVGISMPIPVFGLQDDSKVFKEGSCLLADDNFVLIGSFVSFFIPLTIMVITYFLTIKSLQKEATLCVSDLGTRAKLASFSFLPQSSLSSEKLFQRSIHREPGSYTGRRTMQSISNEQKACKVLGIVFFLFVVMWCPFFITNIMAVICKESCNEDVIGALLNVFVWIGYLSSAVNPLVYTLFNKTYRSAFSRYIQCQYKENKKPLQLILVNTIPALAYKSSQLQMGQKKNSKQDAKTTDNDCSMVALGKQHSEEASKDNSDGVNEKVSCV
T1 sequence (P14416 whole entry F110A): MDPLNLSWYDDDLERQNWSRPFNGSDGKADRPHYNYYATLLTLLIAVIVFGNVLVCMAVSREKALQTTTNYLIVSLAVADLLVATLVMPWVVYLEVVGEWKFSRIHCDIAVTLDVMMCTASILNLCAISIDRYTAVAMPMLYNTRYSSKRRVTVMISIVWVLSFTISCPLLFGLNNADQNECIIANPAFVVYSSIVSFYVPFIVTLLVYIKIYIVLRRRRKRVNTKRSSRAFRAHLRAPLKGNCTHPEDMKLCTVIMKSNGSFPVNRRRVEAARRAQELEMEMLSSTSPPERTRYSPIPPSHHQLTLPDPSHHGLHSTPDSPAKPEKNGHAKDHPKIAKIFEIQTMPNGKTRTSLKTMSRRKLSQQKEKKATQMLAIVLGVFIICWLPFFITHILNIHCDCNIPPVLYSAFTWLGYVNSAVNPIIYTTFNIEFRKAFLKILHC
T3 sequence (P14416 whole entry F110L): as the sequence (P14416 whole entry F110A) above, with A110L counted along it
Sequence of DRD2 (D2 long receptor) wild-type (P14416 whole entry): as the sequence (P14416 whole entry F110A) above, with A110F counted along it

## CCOc1cccc2cc([C@@H](C)NCC3(O)CCCCC3)oc12 [O4RE6]
[1]
  EC50: > 10000 nM
[2]
  Ki: > 10000 nM
[3]
  Ki: 490 nM
[4]
  agonism across 320 nonolfactory GPCRs: agonist efficacy at DRD2 and DRD3
[5]; Log[Drug] -6.52
  Fig_S10k dose-response, drug alone (agonist mode), β-arrestin2 recruitment: -0.1908
[5]; Log[Drug] -7
  Fig_S10k dose-response, drug alone (agonist mode), β-arrestin2 recruitment: 0.697 and 0.4035 and 0.09538 and 0.6532 and -1.18 and 3.874 and 0.7119 and 4.575 and 2.4436
[5]; Log[Drug] -7.52
  Fig_S10k dose-response, drug alone (agonist mode), β-arrestin2 recruitment: 0.4035 and -0.7777 and -0.1834 and -1.703 and -0.8871 and -1.1926 and 2.795 and 3.208 and 1.294
[5]; Log[Drug] -8
  Fig_S10k dose-response, drug alone (agonist mode), β-arrestin2 recruitment: 1.5774 and 2.458 and -0.4916 and -0.4094 and -2.089 and 0.5329 and 11.4772 and 3.9492 and 2.4436
[5]; Log[Drug] -8.52
  Fig_S10k dose-response, drug alone (agonist mode), β-arrestin2 recruitment: -0.8437 and 0.3668 and 0.9905 and -1.355 and 3.003 and -0.7312 and 3.002 and 2.824 and 3.026
[5]; Log[Drug] -9
  Fig_S10k dose-response, drug alone (agonist mode), β-arrestin2 recruitment: 16.8085 and 6.2069 and -0.2128 and 11.6986 and 0.5297 and -1.349 and 1.8808 and 2.833 and 2.6312
[5]; Log[Drug] -9.52
  Fig_S10k dose-response, drug alone (agonist mode), β-arrestin2 recruitment: -0.5503 and 0.3742 (2×) and -0.2437 and 18.2855 and 12.0983 and 1.862 and 3.213 and 3.608
[5]; Log[Drug] -10
  Fig_S10k dose-response, drug alone (agonist mode), β-arrestin2 recruitment: 0.4035 and 2.4358 and 3.331 and 0.1365 and -1.683 and 9.281 and 2.751 and 3.406 and 1.477
[5]; Log[Drug] -10.52
  Fig_S10k dose-response, drug alone (agonist mode), β-arrestin2 recruitment: -0.4916 and 0.9758 and -0.7997 and 1.29 and 4.65 and 10.4637 and 6.306 and 3.973 and 2.054
[5]; Log[Drug] -11
  Fig_S10k dose-response, drug alone (agonist mode), β-arrestin2 recruitment: 2.45 and 2.135 and 3.331 and -1.706 and -2.372 and 0.351 and 0.3319 and 2.848 and 1.106
[5]; Log[Drug] -11.52
  Fig_S10k dose-response, drug alone (agonist mode), β-arrestin2 recruitment: 0.3302 and 0.9611 and 1.255 and 6.574 and 5.31 and 2.18 and 0.7408 and 1.698 and 1.477
[5]; Log[Drug] -12
  Fig_S10k dose-response, drug alone (agonist mode), β-arrestin2 recruitment: 0.3962 and 4.798 and 3.859 and -0.7864 and -1.57 and 2.356 and 1.337 and 0.7456 and 3.045
[6]
  EC50: 215 nM
[6]; read-out: Emax relative to quinpirole response
  Emax: 7.76%
[7]; Log[Drug] -6.52, drug alone
  response, single replicate of concentration-response curve: -0.2238
[7]; Log[Drug] -7, drug alone
  response, single replicate of concentration-response curve: -0.9957 and 0.7395 and -0.3731 and -4.075 and -6.459 and 6.257 and -6.235 and -15.3353 and -2.563
[7]; Log[Drug] -7.52, drug alone
  response, single replicate of concentration-response curve: 3.537 and -8.588 and -8.236 and 1.017 and -6.537 and 8.346 and -24.6047 and -9.735 and -3.961
[7]; Log[Drug] -8, drug alone
  response, single replicate of concentration-response curve: -8.838 and 5.045 and -3.835 and -6.3435 and -10.7922 and -4.261 and 1.209 and 10.8594 and -1.1998
[7]; Log[Drug] -8.52, drug alone
  response, single replicate of concentration-response curve: 7.317 and 3.662 and -0.2578 and 4.902 and -3.436 and -0.8135 and 0.3262 and -17.2923 and -3.276
[7]; Log[Drug] -9, drug alone
  response, single replicate of concentration-response curve: -7.333 and -6.074 and -4.492 and 7.736 and 5.892 and -7.036 and 12.8804 and 16.0838 and -14.0161
[7]; Log[Drug] -9.52, drug alone
  response, single replicate of concentration-response curve: 5.814 and -6.894 and -1.133 and -0.4282 and -3.469 and 10.7257 and -14.7529 and -4.735 and 6.229
[7]; Log[Drug] -10, drug alone
  response, single replicate of concentration-response curve: 4.7653 and -6.922 and -6.74 and 0.01564 and -8.293 and -7.394 and -5.827 and 22.4235 and -13.92
[7]; Log[Drug] -10.52, drug alone
  response, single replicate of concentration-response curve: -4.711 and -9.672 and -0.4245 and 5.467 and 12.0515 and -5.19 and -22.007 and -11.0399 and -21.0839
[7]; Log[Drug] -11, drug alone
  response, single replicate of concentration-response curve: -6.102 and 1.947 and -4.193 and 7.519 and 7.073 and 6.156 and 9.863 and -6.485 and 14.517
[7]; Log[Drug] -11.52, drug alone
  response, single replicate of concentration-response curve: -1.632 and -2.513 and -9.3706 and 4.84 and 6.766 and 9.126 and -22.9448 and -13.1075 and -5.3496
[7]; Log[Drug] -12, drug alone
  response, single replicate of concentration-response curve: -2.553 and 8.39 and 5.434 and 10.274 and 10.0549 and 1.613 and 2.42 and 0.1252 and -2.5423
[8]; Log[Drug] -10
  response, Fig_S10m, replicate values: 2.7529 and -0.4377 and -1.97 and -0.5261 and 1.876 and -0.04315 and 3.796 and 2.966 and 1.035
[8]; Log[Drug] -10.52
  response, Fig_S10m, replicate values: 0.7688 and 0.004826 and -2.114 and 0.954 and 0.8686 and -0.8567 and -0.09082 and -0.6687 and 2.414
[8]; Log[Drug] -11
  response, Fig_S10m, replicate values: 1.778 and -1.268 and 4.058 and 1.198 and 1.567 and 2.185 and -0.6818 and -1.429 and -2.744
[8]; Log[Drug] -11.52
  response, Fig_S10m, replicate values: -1.448 and 1.084 and -0.9329 and 1.724 and -0.9384 and 3.221 and 2.656 and 0.1211 and -2.648
[8]; Log[Drug] -12
  response, Fig_S10m, replicate values: 3.008 and 0.9208 and 2.0444 and 1.398 and -0.9127 and 1.032 and 3.604 and 5.24 and 4.003
[9]
  Ki: 690 nM
[10]; DRD4, Tango, read-out: EC50 ± SEM
  EC50: > 10000 nM
[10]; Log[Drug] -5
  β-arrestin2 recruitment response at DRD4 (source data, replicate values): 6.217 and 2.763 and 2.001 and 1.287 and 1.775 and 4.058 and 4.003 and 0.06427 and 0.2106
  Fig_S10c concentration-response source data, compound alone (replicates): 5.394 and 8.31 and 11.4353 and 9.275 and 2.582 and 4.074 and 8.729 and 7.933 and 14.0378
[10]; Log[Drug] -5.52
  β-arrestin2 recruitment response at DRD4 (source data, replicate values): 2.6039 and -1.106 and -1.946 and -0.4701 and 1.404 and 2.39 and 0.8979 and 0.0552 and 0.08381
  Fig_S10c concentration-response source data, compound alone (replicates): 1.202 and 2.837 and 2.321 and 1.635 and 2.366 and 3.787 and 1.627 and 3.207 and 0.6688
[10]; Log[Drug] -6
  β-arrestin2 recruitment response at DRD4 (source data, replicate values): 3.584 and -1.188 and -0.584 and -0.6588 and 0.8796 and 1.83 and 0.7762 and 0.03516 and 0.171
  Fig_S10c concentration-response source data, compound alone (replicates): 2.086 and 2.7849 and 3.425 and -0.09437 and 0.02849 and 3.5238 and 0.3966 and 3.288 and 1.462
[10]; Log[Drug] -6.52
  β-arrestin2 recruitment response at DRD4 (source data, replicate values): 1.007 and 4.325 and 1.323 and -0.8974 and 1.527 and -0.05366 and -0.1047 and 0.03541 and 0.08444
  Fig_S10c concentration-response source data, compound alone (replicates): 1.505 and 1.478 and 5.593 and -1.936 and -0.8155 and 0.5983 and 2.508 and 1.037 and -0.4712
[10]; Log[Drug] -7
  β-arrestin2 recruitment response at DRD4 (source data, replicate values): 1.079 and -1.731 and -1.221 and -1.369 and 0.6898 and 0.678 and 1.948 and 0.1059 and 0.1355
  Fig_S10c concentration-response source data, compound alone (replicates): 2.288 and 4.238 and 0.7634 and -1.02 and 3.3404 and -2.026 and 1.575 and 0.945 and -0.6741
[10]; Log[Drug] -7.52
  β-arrestin2 recruitment response at DRD4 (source data, replicate values): 0.371 and -1.716 and -1.784 and -0.5805 and -0.6243 and 1.534 and -0.4267 and 0.02533 and 0.04436
[10]; Log[Drug] -8
  β-arrestin2 recruitment response at DRD4 (source data, replicate values): 0.8799 and -0.7087 and -1.711 and -1.318 and -0.195 and -0.3626 and 1.952 and 0.0707 and 0.1967
[10]; Log[Drug] -8.52
  β-arrestin2 recruitment response at DRD4 (source data, replicate values): 1.656 and -1.517 and -1.8 and 0.5698 and 0.5353 and -0.6701 and 0.003927 and 0.031 and 0.0242
[10]; Log[Drug] -9
  β-arrestin2 recruitment response at DRD4 (source data, replicate values): 0.08244 and -0.5912 and 1.416 and -2.021 and 1.101 and 0.6872 and 0.9463 and -0.03415 and 0.05621
[10]; Log[Drug] -10.52
  β-arrestin2 recruitment response at DRD4 (source data, replicate values): 2.403
[10]; Log[Drug] -11
  β-arrestin2 recruitment response at DRD4 (source data, replicate values): 4.161 and -1.784 and -1.43 and 0.349 and 0.8023 and -0.5301 and 2.686 and -0.07952 and -0.04373
[10]; Log[Drug] -11.52
  β-arrestin2 recruitment response at DRD4 (source data, replicate values): 0.6452 and -1.9266 and -1.439 and -0.7995 and -0.6204 and 1.59 and -0.483 and -0.008444 and -0.04903
[11]; Log[Drug] -11.52
  response, single replicates of the concentration-response curve: 7.932 and 1.922 and 1.39 and -3.959 and 2.237 and 14.8084 and -5.287 and -16.0867 and 8.333
[11]; Log[Drug] -12
  response, single replicates of the concentration-response curve: 7.248 and 11.8909 and -3.039 and -4.844 and 11.7663 and -11.164 and 10.085 and 0.6399 and 4.277
